Experimental data: paper PMC12488480, “A missing enzyme-rescue metabolite as cause of a rare skeletal dysplasia” (Nature, 2025)

Legend:
Format in all cases: biochemical
[1] = molecular target: T1, UXS1 (UDP-xylose synthase) (Homo sapiens, UniProt Q8NBZ7); assay: Recombinant enzyme assay, LC-MS
T1 sequence (Q8NBZ7 1-420): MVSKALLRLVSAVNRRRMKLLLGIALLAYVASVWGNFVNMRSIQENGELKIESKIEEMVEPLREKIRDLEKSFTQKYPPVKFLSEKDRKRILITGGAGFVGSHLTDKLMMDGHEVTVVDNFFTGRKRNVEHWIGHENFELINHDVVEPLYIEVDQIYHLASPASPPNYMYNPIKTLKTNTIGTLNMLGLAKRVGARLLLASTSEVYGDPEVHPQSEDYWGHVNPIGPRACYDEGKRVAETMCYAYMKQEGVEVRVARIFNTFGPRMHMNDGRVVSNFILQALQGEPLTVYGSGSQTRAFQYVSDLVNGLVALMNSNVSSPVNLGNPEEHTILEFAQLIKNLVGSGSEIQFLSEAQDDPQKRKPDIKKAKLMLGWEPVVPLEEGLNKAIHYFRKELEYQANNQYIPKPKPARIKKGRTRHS

[2] = molecular target: T1, UXS1 (UDP-xylose synthase); assay: NaBH4 reduction of enzyme-bound NAD+ in recombinant UXS1, LC-MS of NADH and activity
[3] = molecular target: T2, TGDS (dTDP-D-glucose 4,6-dehydratase) (Homo sapiens, UniProt O95455); assay: Recombinant enzyme assay, LC-MS
T2 construct: N-terminal hexahistidine-tag fused to amino acid 15 of TGDS
T2 sequence (O95455 15-350): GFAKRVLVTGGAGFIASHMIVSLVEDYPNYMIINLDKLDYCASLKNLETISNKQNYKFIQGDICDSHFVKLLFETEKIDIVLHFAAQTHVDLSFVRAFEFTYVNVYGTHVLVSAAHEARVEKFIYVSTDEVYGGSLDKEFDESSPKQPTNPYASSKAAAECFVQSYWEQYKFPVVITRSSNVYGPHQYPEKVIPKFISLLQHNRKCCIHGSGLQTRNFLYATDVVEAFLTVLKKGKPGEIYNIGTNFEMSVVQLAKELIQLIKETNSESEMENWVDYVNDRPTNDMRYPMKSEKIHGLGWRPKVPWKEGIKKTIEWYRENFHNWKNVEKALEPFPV

## O=c1ccn([C@@H]2O[C@H](COP(=O)(O)OP(=O)(O)O[C@H]3OC[C@@H](O)[C@H](O)[C@H]3O)[C@@H](O)[C@H]2O)c(=O)[nH]1 [UDP-Xyl, UDP-xylose]
[1]
  Recombinant enzyme assay, LC-MS: We observed an almost complete recovery of UDP-xylose production, an increase of NAD^+

## NC(=O)C1=CN([C@@H]2O[C@H](COP(=O)(O)OP(=O)(O)OC[C@H]3O[C@@H](n4cnc5c(N)ncnc54)[C@H](O)[C@@H]3O)[C@@H](O)[C@H]2O)C=CC1 [NADH]
[2]
  NaBH4 reduction of enzyme-bound NAD+ in recombinant UXS1, LC-MS of NADH and acti: This led to tenfold lower levels of NAD^+ and a concomitant increase in NADH

## C[C@H]1O[C@H](OP(=O)(O)OP(=O)(O)OC[C@H]2O[C@@H](n3ccc(=O)[nH]c3=O)[C@H](O)[C@@H]2O)[C@H](O)[C@@H](O)C1=O [UDP-4k6dG, UDP-4-keto-6-deoxyglucose]
[3]
  Recombinant enzyme assay, LC-MS: TGDS produced a metabolite with identical m/z, elution time and hydration status as UDP-4-keto-6-deoxyglucose produced by fungal UG46DH
